Laboratory results from patent US11992012B2, “Diaminotriazine compounds” (BASF SE, priority 2018, dated 2024).

Legend:
Assay type in all cases: in vivo
[1] = test system: Abutilon theophrasti; assay: greenhouse post-emergence herbicidal test; settings: scale 0 to 100
Text: (§1) The culture containers used were plastic flowerpots containing loamy sand with approximately 3.0% of humus as the substrate. The seeds of the test plants were sown separately for each species.
(§2) For the post-emergence treatment, the test plants were first grown to a height of 3 to 15 cm, depending on the plant habit, and only then treated with the active ingredients which had been suspended or emulsified in water. For this purpose, the test plants were either sown directly and grown in the same containers, or they were first grown separately as seedlings and transplanted into the test containers a few days prior to treatment.
(§3) Depending on the species, the plants were kept at 10-25° C. or 20-35° C., respectively.
(§4) The test period extended over 2 to 4 weeks. During this time, the plants were tended, and their response to the individual treatments was evaluated.
(§5) Evaluation was carried out using a scale from 0 to 100. 100 means no emergence of the plants, or complete destruction of at least the aerial moieties, and 0 means no damage, or normal course of growth. A moderate herbicidal activity is given at values of at least 60, a good herbicidal activity is given at values of at least 70, and a very good herbicidal activity is given at values of at least 85.

[2] = test system: Setaria viridis; assay: greenhouse post-emergence herbicidal test; settings: 125 g/ha, scale 0 to 100
Text: as §1, §2, §3, §4, §5

[3] = test system: Echinocloa crus-galli; assay: greenhouse post-emergence herbicidal test; settings: 125 g/ha, scale 0 to 100
Text: as §1, §2, §3, §4, §5

[4] = test system: Lolium multiflorum; assay: greenhouse pre-emergence herbicidal test; settings: 250 g/ha, scale 0 to 100
Outline: (§6)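 Seeds sown in loamy sand (~3.0% humus); compounds suspended or emulsified in water, sprayed directly after sowing, pots covered until rooting. Kept at 10-25° C. or 20-35° C. by species for 2 to 4 weeks. Damage scored visually 0-100 (100 = no emergence or complete aerial destruction).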

[5] = test system: Echinocloa crus-galli; assay: greenhouse pre-emergence herbicidal test; settings: 250 g/ha, scale 0 to 100
Outline: as §6

[6] = test system: Alopercurus myosuroides; assay: greenhouse pre-emergence herbicidal test; settings: 250 g/ha, scale 0 to 100
Outline: as §6

[7] = test system: Setaria faberi; assay: greenhouse pre-emergence herbicidal test; settings: 250 g/ha, scale 0 to 100
Outline: (§7)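 Compounds suspended or emulsified in water were sprayed onto loamy sand (about 3.0% humus) right after sowing; pots were hooded until rooting. Damage was scored on a 0–100 scale (100 = no emergence or complete aerial destruction, 0 = normal growth) after 2 to 4 weeks.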

[8] = test system: Abutilon theophrasti; assay: greenhouse pre-emergence herbicidal test; settings: 250 g/ha, scale 0 to 100
Outline: as §7

[9] = test system: Apera spica-venti; assay: greenhouse pre-emergence herbicidal test; settings: 250 g/ha, scale 0 to 100
Outline: as §6

[10] = test system: Amaranthus retroflexus; assay: greenhouse post-emergence herbicidal test; settings: 250 g/ha, scale 0 to 100
Text: as §1, §2, §3, §4, §5

[11] = test system: Amaranthus retroflexus; assay: greenhouse pre-emergence herbicidal test; settings: 250 g/ha, scale 0 to 100
Outline: as §6

Row | Structure (SMILES) | herbicidal activity [5] | herbicidal activity [6] | herbicidal activity [7] | herbicidal activity [8] | further results
1 | CC(C)(F)c1nc(N)nc(Nc2c(F)cccc2OCc2ccccc2[N+](=O)[O-])n1 [Example 28] | – | – | – | – | herbicidal activity ([1]; 125 g/ha): 75%; herbicidal activity [2]: 75%; herbicidal activity [3]: 85%
2 | Cc1ccc(COc2cccc(F)c2Nc2nc(N)nc(C(C)(C)F)n2)cc1F [Example 56] | 95% | – | – | – | herbicidal activity [4]: 100%
3 | CC(C)(F)c1nc(N)nc(Nc2c(Cl)cccc2OCc2ccccc2)n1 [Example 85] | – | 70% | 70% | 90% | –
4 | Cc1cscc1COc1cccc(F)c1Nc1nc(N)nc(C(C)(C)F)n1 [Example 111] | 85% | – | – | – | herbicidal activity [9]: 80%; herbicidal activity ([1]; 250 g/ha): 100%; herbicidal activity [10]: 100%
5 | CC(C)(F)c1nc(N)nc(Nc2c(F)cccc2OCc2cc(Cl)sc2Cl)n1 [Example 112] | 80% | – | – | – | herbicidal activity [9]: 80%; herbicidal activity ([1]; 250 g/ha): 100%; herbicidal activity [10]: 100%
6 | CC(C)(F)c1nc(N)nc(Nc2c(F)cccc2OCc2ccsc2C#N)n1 [Example 121] | – | – | – | – | herbicidal activity [11]: 80%; herbicidal activity ([1]; 250 g/ha): 100%; herbicidal activity [10]: 100%
7 | Cc1cc(COc2cccc(F)c2Nc2nc(N)nc(C(C)(C)F)n2)c(C)s1 [Example 125] | 100% | – | – | – | herbicidal activity [9]: 85%
8 | CC(C)(F)c1nc(N)nc(Nc2c(F)cccc2OCc2cccc(OCC(F)(F)F)c2)n1 [Example 134] | 90% | – | 90% | – | herbicidal activity [9]: 95%
9 | CC(C)(F)c1nc(N)nc(Nc2c(F)cccc2OCc2cccc(OC(F)(F)F)c2)n1 [Example 136] | 85% | – | 80% | – | herbicidal activity [9]: 80%
10 | CC(C)(F)c1nc(N)nc(Nc2c(F)c(F)cc(F)c2OCc2c(F)cccc2F)n1 [Example 165] | 100% | 100% | – | 100% | –
11 | CC(C)(F)c1nc(N)nc(Nc2c(F)ccc(F)c2OCc2c(F)cccc2F)n1 [Example 167] | – | 100% | 100% | 100% | –
12 | CC(C)(F)c1nc(N)nc(Nc2c(F)cc(F)c(F)c2OCc2ccccc2)n1 [Example 188] | 100% | 100% | – | 100% | –
13 | Nc1nc(Nc2c(F)c(F)cc(F)c2OCc2ccccc2)nc(C2(F)CCCC2)n1 [Example 199] | 100% | 100% | – | 100% | –
14 | CC(C)(F)c1nc(N)nc(Nc2c(F)c(F)cc(F)c2OCc2cccc(F)c2)n1 [Example 204] | 100% | 100% | 100% | 100% | –
15 | CC(C)(F)c1nc(N)nc(Nc2c(F)c(F)cc(F)c2OCc2ccccc2Cl)n1 [Example 206] | 100% | 100% | 100% | 100% | –
16 | COc1ccccc1COc1c(F)cc(F)c(F)c1Nc1nc(N)nc(C(C)(C)OC)n1 [Example 214] | – | 98% | 90% | 100% | –
17 | CCc1ccc(COc2c(F)cc(F)c(F)c2Nc2nc(N)nc(C(C)(C)F)n2)cc1 [Example 216] | – | 98% | 100% | 100% | –
18 | COC(C)(C)c1nc(N)nc(Nc2c(F)c(F)cc(F)c2OCc2ccccc2C)n1 [Example 226] | 100% | 100% | – | 90% | –
19 | COC(C)(C)c1nc(N)nc(Nc2c(F)c(F)cc(F)c2OCc2ccc(C)cc2)n1 [Example 228] | 90% | 100% | – | 100% | –
20 | Cc1ccccc1COc1c(F)cc(F)c(F)c1Nc1nc(N)nc(C(C)F)n1 (centres unmarked) [Example 229] | 100% | 100% | – | 100% | –
21 | Cc1ccc(COc2c(F)cc(F)c(F)c2Nc2nc(N)nc(C(C)F)n2)cc1 (centres unmarked) [Example 231] | 98% | 98% | – | 98% | –
22 | CC(C)CC(F)c1nc(N)nc(Nc2c(F)cccc2OCc2ccccc2)n1 (centres unmarked) [Example 233] | 95% | 80% | – | 75% | –
23 | CC(C)(F)c1nc(N)nc(Nc2c(F)c(F)cc(Cl)c2OCc2ccccc2)n1 [Example 234] | 100% | 90% | – | 100% | –
24 | CC(C)(F)c1nc(N)nc(Nc2c(F)c(F)c(F)c(F)c2OCc2ccccc2)n1 [Example 236] | 100% | 95% | – | 100% | –
